Values quoted from earlier work, collected in US12274284B2, “High-energy food supplement based on inverted sugars and ergogenic products for use in physical activity and method for producing same” (priority 2019, dated 2025).
Where two headings read alike, the source gives them in different places.

Columns and labels:
[1] = oral administration
[2] = 1 to 6 g/day for a maximum of six months
[3] = 300 mg/day
action of insulin = conditions: 5%, 8 weeks, mice
oxidative stress markers = conditions: 300 mg/kg, 15 days, mice
[4] = not given; remark: listed apart in the source
[5] = system: muscle carnosine concentrations; conditions: 4-6 g/day

**Q.** With `Cn1c(=O)c2c(ncn2C)n(C)c1=O` [Caffeine, 1,3,7 trimethylxanthine] as the molecule, how does the bioavailability [1] read?
**A.** approximately 100%

**Q.** For `C[N+](C)(C)C[C@H](O)CC(=O)[O-]` [carnitine, L-carnitine], which “adverse effect or intoxication” value [2] is on record?
**A.** no adverse effect or intoxication

**Q.** And the “plasma concentrations of carnitine” value [2]?
**A.** considerably improved the plasma concentrations of carnitine

**Q.** For `COC1=C(OC)C(=O)C(C/C=C(\C)CC/C=C(\C)CC/C=C(\C)CC/C=C(\C)CC/C=C(\C)CC/C=C(\C)CC/C=C(\C)CC/C=C(\C)CC/C=C(\C)CCC=C(C)C)=C(C)C1=O` [coenzyme Q10], which “feeling of tiredness and physical performance during effort tests” value [3] is on record?
**A.** reduced the feeling of tiredness and improved physical performance

**Q.** Which results are given for `CC(=O)C(=O)O` [pyruvate, calcium pyruvate]?
**A.** patients with a fat loss (0.05 g/Kg/day after 0.1 g/kg/day for 10 days, 13 to 38 days): 79.6%; patients with a reduction in skinfolds (in vivo): 89.8%; patients with a reduction in the abdomen circumference (in vivo): 74%

**Q.** What does the source list for `NCCS(=O)(=O)O` [taurine, 2-aminoethanesulfonic acid]?
**A.** action of insulin in liver and skeletal muscle (action of insulin): boosted the action of insulin in the liver and the skeletal muscle; superoxide radicals, lipid peroxidation, carbonylation (oxidative stress markers): reduced the production of superoxide radicals, lipid peroxidation, and carbonylation

**Q.** With `O=C1O[C@H]([C@@H](O)CO)C(O)=C1O` [vitamin C] as the molecule, how does the “tissue concentration of the vitamin” value ([4]; 400 mg/day) read?
**A.** increased the tissue concentration of the vitamin

**Q.** Which “increase in muscle carnosine concentrations” value ([5]; after 10 weeks) does the source give for `NCCC(=O)O` [β-alanine] here?
**A.** 80%

**Q.** And the “increase in muscle carnosine concentrations” value ([5]; following 4 weeks)?
**A.** ≤ 64%

**Q.** For vitamin E, which “blood plasma concentration of a protein associated with muscle injury” value ([4]; 1000 UI/day) is on record?
**A.** reduced the concentration of a protein associated with muscle injury in the blood plasma
